Reference: ChEMBL document CHEMBL3352432, “Synthesis and biological evaluation of 2-anilino-4-substituted-7H-pyrrolopyrimidines as PDK1 inhibitors” (Bioorg Med Chem, 2014)

These molecules were tested against T1, 3-phosphoinositide-dependent protein kinase 1 (Homo sapiens) (UniProt O15530) (assay: Inhibition of PDK1 (unknown origin) expressed in HEK293 cells using PDKtide as substrate at 10 uM after 10 mins by liquid scintillation counting in presence of [gamma-32P]ATP).
T1 sequence (whole entry): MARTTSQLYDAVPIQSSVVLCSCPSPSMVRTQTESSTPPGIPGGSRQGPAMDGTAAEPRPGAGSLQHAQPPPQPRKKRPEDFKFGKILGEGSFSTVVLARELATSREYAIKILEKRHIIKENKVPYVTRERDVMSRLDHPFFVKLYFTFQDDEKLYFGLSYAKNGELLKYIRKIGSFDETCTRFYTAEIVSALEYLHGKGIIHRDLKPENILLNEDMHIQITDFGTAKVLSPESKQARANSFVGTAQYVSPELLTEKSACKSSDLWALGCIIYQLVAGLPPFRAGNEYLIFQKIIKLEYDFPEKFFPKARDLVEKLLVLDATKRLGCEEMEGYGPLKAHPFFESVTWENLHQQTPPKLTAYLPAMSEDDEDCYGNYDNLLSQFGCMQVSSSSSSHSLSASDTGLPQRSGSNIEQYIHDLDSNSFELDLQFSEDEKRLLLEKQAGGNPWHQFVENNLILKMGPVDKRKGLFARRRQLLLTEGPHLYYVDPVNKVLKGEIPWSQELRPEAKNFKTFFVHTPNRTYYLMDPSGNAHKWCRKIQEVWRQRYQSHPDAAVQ

| SMILES | inhibition |
| --- | --- |
| COc1cccc(-c2nc(Nc3cccc(NC(=O)N4CCCC4)c3)nc3[nH]ccc23)c1 | 48% |
| COc1ccc(Nc2nc(Nc3cccc(NC(=O)N4CCCC4)c3)nc3[nH]ccc23)cc1 | 45% |
| O=C(Nc1cccc(Nc2nc(-c3ccc4c(c3)OCO4)c3cc[nH]c3n2)c1)N1CCCC1 | 61% |
| COc1cc(-c2nc(Nc3cccc(NC(=O)N4CCCC4)c3)nc3[nH]ccc23)cc(OC)c1OC | 36% |
| COc1ccc(Oc2nc(Nc3cccc(NC(=O)N4CCCC4)c3)nc3[nH]ccc23)cc1 | 65% |

Next, values leading:

| inhibition | SMILES |
| --- | --- |
| 46% | O=C(Nc1cccc(Nc2nc(-c3cccc(OCc4cccnc4)c3)c3cc[nH]c3n2)c1)N1CCCC1 |
| 90% | COc1nc(Nc2cccc(NC(=O)N3CCCC3)c2)nc2[nH]ccc12 |
| 70% | COc1ccc(-c2nc(Nc3cccc(NC(=O)N4CCCC4)c3)nc3[nH]ccc23)cc1 |
| 59% | O=C(Nc1cccc(Nc2nc(-c3ccccc3)c3cc[nH]c3n2)c1)N1CCCC1 |
| 46% | O=C(Nc1cccc(Nc2nc(Nc3ccccc3)c3cc[nH]c3n2)c1)N1CCCC1 |
| 65% | COc1ccc(-c2nc(Nc3cccc(NC(=O)N4CCCC4)c3)nc3[nH]ccc23)cc1OC |

What follows are molecules tested against T2, 3-phosphoinositide-dependent protein kinase 1 (Homo sapiens, UniProt O15530) (assay: Inhibition of PDK1 (unknown origin) expressed in HEK293 cells using PDKtide as substrate after 10 mins by liquid scintillation counting in presence of [gamma-32P]ATP).
T2 sequence (O15530 whole entry): T1 sequence (whole entry)

| IC50 | SMILES |
| --- | --- |
| 1.2 µM | COc1nc(Nc2cccc(NC(=O)N3CCCC3)c2)nc2[nH]ccc12 |
| 4.9 µM | COc1ccc(-c2nc(Nc3cccc(NC(=O)N4CCCC4)c3)nc3[nH]ccc23)cc1 |
